Experimental data: PubChem BioAssay AID330 (DTP/NCI, 2004)
Several values for one entry are separate records, joined by “and”; a condition that tells them apart may be missing. Equal values may be shown once. Toxic doses and inconclusive results are not listed.

System: P388 leukemia ip, CD2F1 mice, survival T/C
Test: NCI In Vivo Anticancer Drug Screen. Data for tumor model P388 Leukemia (intraperitoneal) in CD2F1 (CDF1) mice
Details: endpoint: median survival time, higher = longer survival
Protocol: The antitumor activity of compounds was measured in mice bearing transplantable tumors. Survival or tumor size were measured and the results are expressed as the measurement made in the treated group (T) divided by the measurement made in the vehicle treated control group (C). The tumor model used in this assay is P388 Leukemia (intraperitoneal) in CD2F1 (CDF1) mice

[1] = dose: 50.0 mg/kg/injection, schedule: Q01DX005 (ip), vehicle: saline with Tween-80
[2] = dose: 100.0 mg/kg/injection, schedule: Q01DX005 (ip), vehicle: saline with Tween-80
[3] = dose: 200.0 mg/kg/injection, schedule: Q01DX005 (ip), vehicle: saline with Tween-80
[4] = dose: 50.0 mg/kg/injection, schedule: Q01DX009 (ip), vehicle: saline with Tween-80
[5] = dose: 100.0 mg/kg/injection, schedule: Q01DX009 (ip), vehicle: saline with Tween-80

CC(C)C(Nc1ncnc2nc[nH]c12)C(=O)O (centres undefined)
T/C [1]: 102 % of control
T/C [2]: 102 % of control
T/C [3]: 103 % of control

CN=C1C=CC(=C(c2ccc(N(C)C)cc2)c2ccc(N(C)C)cc2)C=C1
T/C (dose: 6.25 mg/kg/injection, schedule: Q01DX005 (ip), vehicle: Klucel (hydroxypropylcellulose) (HPC)): 119 % of control

COc1ccc(-n2[nH]c3c(cnc4ccccc43)c2=O)cc1
T/C (dose: 15.0 mg/kg/injection, schedule: Q01DX005 (ip), vehicle: saline with Tween-80): 87 % of control
T/C (dose: 30.0 mg/kg/injection, schedule: Q01DX005 (ip), vehicle: saline with Tween-80): 87 % of control
T/C (dose: 60.0 mg/kg/injection, schedule: Q01DX005 (ip), vehicle: saline with Tween-80): 90 % of control
T/C (dose: 120.0 mg/kg/injection, schedule: Q01DX005 (ip), vehicle: saline with Tween-80): 100 % of control
T/C (dose: 240.0 mg/kg/injection, schedule: Q01DX005 (ip), vehicle: saline with Tween-80): 94 % of control

CC1(C)CC(=O)C2=C(C1)Nn1c(nnc1C(F)(F)F)S2
T/C [4]: 102 % of control
T/C [5]: 110 % of control
T/C (dose: 200.0 mg/kg/injection, schedule: Q01DX009 (ip), vehicle: saline with Tween-80): 105 % of control

COc1cccc2c1C(=O)c1c(O)c3c(c(O)c1C2=O)C[C@H](O)C[C@@H]3OC1CC(N)C(O)C(C)O1 (some centres undefined)
T/C (dose: 0.5 mg/kg/injection, schedule: Q04DX003 (ip), vehicle: saline): 105 % of control
T/C (dose: 1.0 mg/kg/injection, schedule: Q04DX003 (ip), vehicle: saline): 114 % of control
T/C (dose: 1.56 mg/kg/injection, schedule: Q01DX009 (ip), vehicle: water): 155 % of control and 161 % of control
T/C (dose: 2.0 mg/kg/injection, schedule: Q04DX003 (ip), vehicle: saline): 107 % of control
T/C (dose: 3.13 mg/kg/injection, schedule: Q01DX009 (ip), vehicle: water): 174 % of control
T/C (dose: 4.0 mg/kg/injection, schedule: Q04DX003 (ip), vehicle: saline): 117 % of control
T/C (dose: 4.7 mg/kg/injection, schedule: Q04DX003 (ip), vehicle: water): 109 % of control
T/C (dose: 6.25 mg/kg/injection, schedule: Q01DX009 (ip), vehicle: water): 180 % of control and 209 % of control
T/C (dose: 8.0 mg/kg/injection, schedule: Q04DX003 (ip), vehicle: saline): 108 % of control
T/C (dose: 12.5 mg/kg/injection, schedule: Q01DX009 (ip), vehicle: water): 228 % of control and 236 % of control
T/C (dose: 64.0 mg/kg/injection, schedule: Q04DX003 (ip), vehicle: saline): 169 % of control
T/C (dose: 75.0 mg/kg/injection, schedule: Q04DX003 (ip), vehicle: water): 181 % of control
T/C (dose: 113.0 mg/kg/injection, schedule: Q04DX003 (ip), vehicle: water): 116 % of control
T/C (dose: 128.0 mg/kg/injection, schedule: Q04DX003 (ip), vehicle: saline): 100 % of control

COc1ccc2c(c1)OCCN(C)C2c1ccccc1 (centres undefined)
T/C [1]: 97 % of control
T/C [2]: 99 % of control
T/C [3]: 99 % of control

COc1cc(C2c3cc(OC(C)=O)c(OC)cc3CC3C(=O)OCC32)ccc1OC(C)=O (centres undefined)
T/C (dose: 50.0 mg/kg/injection, schedule: Q01DX005 (ip), vehicle: Klucel (hydroxypropylcellulose) (HPC)): 95 % of control
T/C (dose: 100.0 mg/kg/injection, schedule: Q01DX005 (ip), vehicle: Klucel (hydroxypropylcellulose) (HPC)): 93 % of control
T/C (dose: 200.0 mg/kg/injection, schedule: Q01DX005 (ip), vehicle: Klucel (hydroxypropylcellulose) (HPC)): 90 % of control

NCC=C1C2CC3CC(C2)CC1C3
T/C (dose: 6.25 mg/kg/injection, schedule: Q01DX009 (ip), vehicle: saline): 105 % of control and 107 % of control and 120 % of control
T/C (dose: 12.5 mg/kg/injection, schedule: Q01DX009 (ip), vehicle: saline): 107 % of control (2×) and 117 % of control
T/C (dose: 25.0 mg/kg/injection, schedule: Q01DX009 (ip), vehicle: saline): 111 % of control and 94 % of control
T/C (dose: 50.0 mg/kg/injection, schedule: Q01DX009 (ip), vehicle: saline): 103 % of control

C#CCOc1ccc(C(F)(F)F)cc1
T/C (dose: 25.0 mg/kg/injection, schedule: Q01DX009 (ip), vehicle: saline with Tween-80): 105 % of control
T/C [4]: 118 % of control
T/C [5]: 119 % of control
